According to patent publication US6962930B1, “Compounds, compositions and method suitable for amelioration of withdrawal syndromes and withdrawal-induced brain damage” (Lohocla Research Corporation, priority 1997, dated 2005):

System: ethanol withdrawal-induced seizures in C57BL/6 mice
Assay: Ethanol withdrawal-induced seizures
Format: in vivo
Settings: single 100 mg/kg i.p. at 0900 hours
Text: Male C57BL/6 mice were housed individually. One group of mice were each given a measured amount of liquid diet (BioServ) containing 6.7% ethanol (v/v) and a second, control group of mice each received the same diet with maltodextrin substituted isocalorically for ethanol, as their sole nutrient source for 7 days. A description of such a test can be found in Grant, K. A., et al., “ETHANOL WITHDRAWAL SEIZURES AND THE NMDA RECEPTOR COMPLEX,” Eur. J. Pharmacol., 176 289–296, (1990), the relevant disclosures of which are incorporated herein by reference. Pair-fed mice were given a volume of liquid diet equal to the average volume that the ethanol-fed mice consumed on the previous day. This treatment regimen produces mice that are functionally tolerant to and physically dependent on ethanol. Beginning at 0700 hours on the eighth day of the diet, ethanol-containing diet was replaced with control liquid diet (“withdrawal”).
Withdrawal seizure severity was assessed by measuring the incidence of handling-induced and spontaneous seizures, which were rated on a rating scale of 0 to 4, modified from a rating scale described by Grant, K. A., et al. in the above cited article. The rating scale was as follows: 0, little or no reaction; 1, slight jerkiness upon handling; 2, excitability increasing in magnitude to a clonic-tonic seizure; 3, spontaneous or instantaneous clonic-tonic seizure; 4, death while in a seizure. The mice were rated for seizure severity at 2, 4, 6, 7, 8, 9, 10, 11, 12 and 24 hours after ethanol withdrawal. Groups of ethanol-fed mice were injected intraperitoneally at 0700, 1100 and 1400 hours with saline, 3, 10 or 17 mg/kg (±)HA-966 (FIG. 5A) or 10, 17 or 30 mg/kg 7-Cl kynurenic acid (FIG. 5B).
Male C57BL/6 mice were fed ethanol in a liquid diet and the withdrawal seizure severity was assessed as described in EXAMPLE 5. Groups of ethanol-fed mice received a single injection (i.p.) of either vehicle (4% Tween-80, 0.5% carboxymethylcellulose in 0.9% saline) alone or of 100 mg/kg DCUK-OMe suspended in the vehicle administered at 0900 hours. The results are presented in FIG. 6A as the median withdrawal scores of vehicle-injected (N=14) or DCUK-OMe injected (N=6) mice in which * denotes P<0.05, statistically compared to vehicle-injected mice, in the Mann-Whitney U test. FIG. 6B presents the same data as the total withdrawal score, defined as the area enclosed by the curve connecting median withdrawal scores plotted against time as in FIG. 6A. The mean total withdrawal scores±SEM for the vehicle-injected group and DCUK-OMe-injected groups are plotted in which * denotes P<0.05, statistically compared to vehicle-injected mice, by the Student t-test.

With `COC(=O)c1cc(NC(=O)N(c2ccccc2)c2ccccc2)c2c(Cl)cc(Cl)cc2n1` [DCUK-OMe, (N,N-diphenyl)-4-ureido-5,7-dichloro-2-carboxy-quinoline methyl ester] the ethanol withdrawal severity was “reduces ethanol withdrawal severity”.
